Consider four molecules from patent US20060034807A1, “Innervated artificial tissues and uses thereof” (Ottawa Health Research Institute, priority 2002, published 2006).

The subject of test [1] is HUVEC. Description: Effect of growth factors and retinyl acetate on angiogenesis in the sclera model. In kind it is cell-based, Human. As for the experimental part:
The fibrinogen solution (3 mg/ml) was mixed with the thrombin solution (1.75 mg/ml) at a ratio of 1:0.03 v/v in wells of different sizes. Within a minute, enzymatic polymerization of fibrinogen gave fibrin gels under gentle agitation at 37° C. To incorporate endothelial cells in the fibrin matrix and to induce angiogenesis, endothelial cells were firstly seeded on the bottom of gelatin-coated wells at high density to provide a confluent monolayer at 48 hours. […] Fibrin gels were obtained again within a minute. Within 2 weeks of culture at 37° C. with 5% CO2, tube like vessels were generated within the matrix that associated together in order to form cord structures. These were visible by light microscopy and were counted in order to give an indication of vessel numbers. A combinatorial approach was utilized to evaluate what factors are required to achieve the optimal number of blood vessels within this sclera model. The pseudo sclera was generated as per Section 3.1.3. […] The effectiveness of the growth factors in positively affecting angiogenesis was evaluated by counting the number of tubes identified in a dish by brightfield microscopy. […] The effect of RA on angiogenesis was evaluated in the system described above. […] Blood vessel formation was evaluated by counting the number of vessels within a treated dish. […]

The test system of test [2] is innervated TE cornea constructs. Briefly: Substance P release from innervated TE corneas (EIA). In kind it is cell-based, chick. The following applies: for SP release versus controls: 1% capsaicin or 50 μM veratridine, P<0.05. On the procedure:
To elicit a functional response such as SP release, innervated TE cornea constructs were treated with capsaicin or veratridine. Briefly, innervated tissue engineered corneas were treated with a total of 1.5 ml of SHEM containing 8.5% Tween 80 and 1.5% ethanol either alone (control) or with 1) 1% (w/v) capsaicin, or 2) 50 μM veratridine. At 0, 1, 3, 6, 12 and 24 hours post-treatment, culture supernatants were collected, flash frozen in liquid nitrogen and stored at −80° C. Substance P content of the medium was measured using a substance P specific competitive peptide enzyme immunoassay (EIA) kit (Peninsula Laboratories). […] All groups, n 3. *P<0.001 versus control (2-way ANOVA).

In test [3] the test system is nerve bundles growing into the cornea. Briefly: Electrophysiological recording of evoked action potentials in TE corneas. The test is classed as cell-based, chick. The following applies: 50 mM lidocaine HCl; stimulation of ganglion cell cluster. From the text: Direct electrophysiological recording from the corneal epithelium was therefore conducted to confirm that nerve bundles growing into the cornea were able to conduct lidocaine-sensitive action potentials that were evoked by stimulation of the ganglion cell cluster (FIG. 3C, D). Tissue engineered corneas were transferred into an interface recording chamber, perfused with artificial saline containing (in mM): NaCl: 126, KCl: 3.0, MgSO4: 2.0, NaHCO3: 26, NaH2PO4 1.25, CaCl2: 2.0, dextrose: 10, oxygenated with 95% O2/5% CO2 at room temperature. Cathodal stimulation of ganglion cell clusters was done using silver wires pressed lightly against the surface and applying square wave stimulus pulses of 50 μs duration and typically 60-80 V in amplitude. Differential recordings of electrical responses from nerve fibre bundles were recorded with glass micropipettes (≈50 μm tips) filled with 150 mM NaCl. Because of the close proximity of the stimulation to the recording electrodes, a very large stimulus artefact was generated that obscured the very small action potentials (FIG. 3C, the action potential is indicted by the arrow).
To observe action potentials in isolation, evoked responses were recorded before and after addition of 50 mM lidocaine HCl. […]

In test [4] the test system is neutrophils. Briefly: Zymographic detection of metalloproteases. The test is classed as cell-based. The settings on record: neutrophils added on top of collagen matrix. As for the experimental part:
Metalloproteinases MMPs) are a family of closely related zinc-containing enzymes whose principal function is thought to be an integral part of generalized tissue remodeling as well as the formation of new blood vessels. Zymography has the advantage that in addition to detecting enzyme activity it can be used to provide information about the molecular weight of an enzyme and so help identify the enzyme. To achieve this dissolved gelatin is incorporated into a polyacrylamide gel, samples are added to the gel, separated by electrophoresis and the gel allowed to incubate for a while to allow the enzymes to degrade the gelatin. When the gels are stained for proteins clear lysis bands are apparent where the metalloproteinases have degraded the gelatin.

On to `CC(=O)OC/C=C(C)/C=C/C=C(C)/C=C/C1=C(C)CCCC1(C)C` [RA, Retinyl acetate], for which, in test [1] (high levels of RA), the “number of blood vessels” value is “decreased”. For the same molecule, the “Blood vessel formation (number of vessels)” value in test [1] (various concentrations of RA) is “increases in a dose dependent fashion and is optimal at an intermediate range”.

Regarding `COc1cc(CNC(=O)CCCC/C=C/C(C)C)ccc1O` [capsaicin], the “release of SP versus controls” value in test [2] (1% (w/v) capsaicin, 1, 3, 6, 12 and 24 hours, P<0.001) is “significantly greater”. Further, the “SP release versus controls” value in test [2] (6 hours post-treatment) and in test [2] (24 hours post-treatment) was “significant increase” each time.

For `CCN(CC)CC(=O)Nc1c(C)cccc1C` [lidocaine], in test [3], the “sensitivity of evoked action potentials” value is “lidocaine-sensitive”.

Regarding formyl-Met-Leu-Phe [FMLP], the “stimulation of neutrophils (MMP-2 and MMP-9 detected)” value in test [4] is “able to stimulate them”.
